From PubChem BioAssay (NCI)
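Five concentrations, 48 hours, 96-well plates. Abbreviation: GI50, concentration required for 50% inhibition of growth. At the TGI there is no net growth.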

Experiments:
Test in all cases: NCI tumour cell line growth inhibition, 48 h
[1] = test system: NCI-H226 lung
[2] = test system: OVCAR-3 ovarian
[3] = test system: HCT-15 colon
[4] = test system: SK-MEL-28 melanoma
[5] = test system: 786-0 renal
[6] = test system: SK-OV-3 ovarian
[7] = test system: SF-539 CNS
[8] = test system: RXF 393 renal
[9] = test system: ACHN renal
[10] = test system: LOX IMVI melanoma

| SMILES | GI50 [1] | TGI [1] | GI50 [2] | TGI [2] | GI50 [3] | TGI [3] | GI50 [4] | TGI [4] | GI50 [5] | TGI [5] | GI50 [6] | TGI [6] | GI50 [7] | TGI [7] | GI50 [8] | TGI [8] | GI50 [9] | TGI [9] | GI50 [10] | TGI [10] |
| --- | --- | --- | --- | --- | --- | --- | --- | --- | --- | --- | --- | --- | --- | --- | --- | --- | --- | --- | --- | --- |
| CC(C)C[C@H](NC(=O)[C@H](Cc1ccccc1)n1ccc(N2CCCCC2)cc1=O)B(O)O | 0.188 µM | 0.423 µM | 0.327 µM | 1.21 µM | 1.61 µM | 22.1 µM | 0.521 µM | 29.7 µM | 0.825 µM | > 100 µM | 2.36 µM | 71.5 µM | 0.206 µM | 0.604 µM | 0.284 µM | 0.882 µM | 0.406 µM | > 100 µM |  |  |
| O=C1/C(=C/c2cccc([N+](=O)[O-])c2)COc2ccc(O)c(O)c21 | 2.35 µM | 8.33 µM | 1.2 µM | 2.71 µM | 0.569 µM | 2.76 µM | 1.56 µM | 2.98 µM | 1.35 µM | 2.85 µM | 3.41 µM | 12.6 µM | 1.61 µM | 3.57 µM | 1.28 µM | 2.69 µM | 1.36 µM | 2.68 µM | 0.499 µM | 1.86 µM |
| O=C(Nc1ccc(Cl)c([N+](=O)[O-])c1)Nc1nc2ccccc2s1 | 4.06 µM | 17.3 µM | 3.27 µM | 10.6 µM | 3.32 µM | 15.5 µM | 4.95 µM | 21.3 µM | 10.3 µM | 26.8 µM | 2.6 µM | 8.46 µM | 3.77 µM | 16.9 µM | 3.76 µM | 11.4 µM | 3.34 µM | 12.8 µM | 3.98 µM | 21 µM |
| CN1CCN(Cc2ccc(-c3cc4ncnc(Nc5ccc(OCc6cccc(F)c6)c(Cl)c5)c4s3)o2)CC1 | 4.39 µM | 10.4 µM | 4.23 µM | 8.01 µM | 2.92 µM | 6.39 µM | 4.08 µM | 7.61 µM | 4.47 µM | 8.95 µM | 4.67 µM | 9.97 µM | 4.17 µM | 8.55 µM | 3.33 µM | 7.52 µM | 3.26 µM | 6.95 µM | 3.66 µM | 8.07 µM |
| COc1cccc(N2C(=O)c3c(c4[nH]c5ccccc5c4c4ccc(C(C)(C)C)cc34)C2=O)c1 |  | > 100 µM |  | > 100 µM |  | > 100 µM |  | > 100 µM |  | > 100 µM |  | > 100 µM |  | > 100 µM |  | > 100 µM |  | > 100 µM |  | > 100 µM |
| O=C(Nc1ccc(Cl)c(C(F)(F)F)c1)C(=O)C(C(=O)/C=C/c1ccccc1)C1OC(=O)c2ccccc21 (stereo not drawn) |  | > 100 µM |  | > 100 µM |  | > 100 µM |  |  |  | > 100 µM |  | > 100 µM |  |  |  | > 100 µM |  | > 100 µM |  | > 100 µM |
| C/C(=N\N=C(N)N)C(CN(CC(C)C)CC(C)C)C(=O)Nc1ccc(C)cc1C (stereo not drawn) |  | > 100 µM |  | > 100 µM |  | > 100 µM |  | > 100 µM |  | > 100 µM |  | > 100 µM |  | > 100 µM |  | > 100 µM |  | > 100 µM |  | > 100 µM |
| COC(=O)C1(C)C=C(Nc2ccccc2)C(=O)N1c1ccccc1 (stereo not drawn) |  | > 100 µM |  | > 100 µM |  |  |  | > 100 µM |  | > 100 µM |  | > 100 µM |  | > 100 µM |  | > 100 µM |  | > 100 µM |  | > 100 µM |
| O=C(O)c1ccc(NC(=O)C2C(=O)C(=O)N(c3ccc(C(=O)O)cc3)C2=O)cc1 (stereo not drawn) |  | > 100 µM |  | > 100 µM |  | > 100 µM |  | > 100 µM |  | > 100 µM |  | > 100 µM |  | > 100 µM |  | > 100 µM |  | > 100 µM |  | > 100 µM |
| Cn1ccnc1C(=O)/C=C/c1ccc(CC(=O)Nc2ccc(Cl)cc2)cc1 | 7.43 µM | > 25 µM | 1.03 µM | > 25 µM | 0.999 µM | > 25 µM | > 25 µM | > 25 µM | 1.6 µM | > 25 µM | 8.79 µM | > 25 µM | 6.4 µM | > 25 µM | 2.97 µM | > 25 µM | 15 µM | > 25 µM | 1.07 µM | > 25 µM |
| O=C(Nc1ccc(-c2nc3cc4ccccc4cc3[nH]2)cc1)c1cccc(Br)c1 | 21.4 µM | 50.2 µM | 3.64 µM | 10.3 µM | 4.12 µM | 42.1 µM | 4.33 µM | 16.8 µM | 5.48 µM | 18 µM | 16.3 µM | 32.8 µM | 12.9 µM | 26.7 µM | 1.9 µM | 8.28 µM | 12.3 µM | 31 µM | 6.85 µM | 20.1 µM |
| COc1cc2oc(=O)cc(C)c2cc1[N+](=O)[O-] |  | 26.9 µM |  | 64.1 µM |  | 44.4 µM |  | 64.6 µM |  | 49.5 µM |  | > 100 µM |  | 57.7 µM |  | 33.8 µM |  | > 100 µM |  | 28.6 µM |
| CC(C(=O)N1C(=O)N(C(=O)C(C)C(O)c2ccccc2)C(c2ccccc2)C1c1ccccc1)C(O)c1ccccc1 (stereo not drawn) |  | 34.3 µM |  | 31.5 µM |  | > 100 µM |  | 40.2 µM |  | > 100 µM |  |  |  | 22.6 µM |  | 28.1 µM |  | > 100 µM |  | 24.2 µM |
| CN(N=O)C(=O)Nc1c[nH]c(=O)[nH]c1=O |  | > 100 µM |  | > 100 µM |  | > 100 µM |  | > 100 µM |  | > 100 µM |  | > 100 µM |  | > 100 µM |  |  |  | > 100 µM |  | > 100 µM |
| Oc1ccc(C(c2ccccc2)(c2ccccc2)c2ccccc2)cc1 | 19.4 µM | 37.6 µM | 16.6 µM | 37.6 µM | 27.5 µM | > 100 µM |  |  | 14.4 µM | 29.7 µM | 16.3 µM | 30 µM | 17.6 µM | 31.9 µM | 10.4 µM | 25 µM | 21.9 µM | 41.4 µM | 24.4 µM | > 100 µM |
| CC(Cn1c2c3ccccc3ccc2c2oc(=O)c3ccccc3c21)N(C)C (stereo not drawn) |  |  |  | > 100 µM |  | > 100 µM |  | > 100 µM |  | > 100 µM |  |  |  | > 100 µM |  |  |  | > 100 µM |  | > 100 µM |
